According to ChEMBL document CHEMBL4507295 (2021):

Tests used:
[1] = target: Rho-associated protein kinase 1 (Homo sapiens) (UniProt Q13464); details: Compound concentration 1000.0 nM
[2] = target: Casein kinase I isoform epsilon (Homo sapiens) (UniProt P49674); details: Compound concentration 1000.0 nM
[3] = target: Bone morphogenetic protein receptor type-2 (Homo sapiens) (UniProt Q13873); details: Compound concentration 1000.0 nM
[4] = target: Receptor-interacting serine/threonine-protein kinase 2 (Homo sapiens) (UniProt O43353); details: Compound concentration 1000.0 nM
Sequence of Receptor-interacting serine/threonine-protein kinase 2 (Homo sapiens) (O43353 whole entry): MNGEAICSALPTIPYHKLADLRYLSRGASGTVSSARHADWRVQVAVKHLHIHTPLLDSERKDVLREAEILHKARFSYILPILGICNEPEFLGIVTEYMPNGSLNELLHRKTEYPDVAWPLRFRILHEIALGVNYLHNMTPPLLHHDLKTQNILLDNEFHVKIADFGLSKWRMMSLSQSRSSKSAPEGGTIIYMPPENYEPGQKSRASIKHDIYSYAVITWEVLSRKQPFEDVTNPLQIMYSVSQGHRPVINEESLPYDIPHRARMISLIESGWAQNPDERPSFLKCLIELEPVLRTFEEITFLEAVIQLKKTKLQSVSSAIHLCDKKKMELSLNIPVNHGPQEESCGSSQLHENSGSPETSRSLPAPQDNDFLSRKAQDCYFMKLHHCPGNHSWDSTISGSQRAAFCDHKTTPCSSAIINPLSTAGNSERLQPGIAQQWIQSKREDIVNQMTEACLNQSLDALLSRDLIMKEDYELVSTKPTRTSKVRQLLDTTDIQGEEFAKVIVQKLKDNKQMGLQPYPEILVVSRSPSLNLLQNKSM

[5] = target: ALK tyrosine kinase receptor (Homo sapiens) (UniProt Q9UM73); details: Compound concentration 1000.0 nM
[6] = target: Serine/threonine-protein kinase OSR1 (Homo sapiens) (UniProt O95747); details: Compound concentration 1000.0 nM
[7] = target: Serine/threonine-protein kinase PAK 3 (Homo sapiens) (UniProt O75914); details: Compound concentration 1000.0 nM
[8] = target: Leucine-rich repeat serine/threonine-protein kinase 2 (Homo sapiens) (UniProt Q5S007); details: Compound concentration 1000.0 nM
[9] = system: ALK tyrosine kinase receptor (Homo sapiens), Q9UM73 [L1196M]; details: Compound concentration 1000.0 nM
[10] = target: Proto-oncogene tyrosine-protein kinase Src (Homo sapiens) (UniProt P12931); details: Compound concentration 1000.0 nM
Sequence of Proto-oncogene tyrosine-protein kinase Src (Homo sapiens) (P12931 2-536 limits assumed): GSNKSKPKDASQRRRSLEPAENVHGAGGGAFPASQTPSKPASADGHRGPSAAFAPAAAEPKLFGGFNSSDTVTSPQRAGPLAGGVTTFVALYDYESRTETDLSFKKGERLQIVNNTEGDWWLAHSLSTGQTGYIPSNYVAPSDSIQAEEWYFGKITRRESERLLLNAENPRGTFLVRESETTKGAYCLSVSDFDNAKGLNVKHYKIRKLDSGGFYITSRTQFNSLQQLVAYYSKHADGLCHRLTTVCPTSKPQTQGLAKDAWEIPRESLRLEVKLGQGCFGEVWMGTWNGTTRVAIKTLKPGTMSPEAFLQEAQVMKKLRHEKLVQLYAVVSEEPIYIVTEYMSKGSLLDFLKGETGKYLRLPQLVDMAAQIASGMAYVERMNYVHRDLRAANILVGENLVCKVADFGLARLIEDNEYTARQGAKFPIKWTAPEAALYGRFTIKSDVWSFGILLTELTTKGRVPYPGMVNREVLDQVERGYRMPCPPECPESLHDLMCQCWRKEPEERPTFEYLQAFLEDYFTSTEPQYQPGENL

[11] = system: Epidermal growth factor receptor (Homo sapiens), P00533 [UNDEFINED MUTATION]; details: Compound concentration 1000.0 nM
Sequence of Epidermal growth factor receptor (Homo sapiens), P00533 [UNDEFINED MUTATION] (P00533 whole entry, looked up, change not shown): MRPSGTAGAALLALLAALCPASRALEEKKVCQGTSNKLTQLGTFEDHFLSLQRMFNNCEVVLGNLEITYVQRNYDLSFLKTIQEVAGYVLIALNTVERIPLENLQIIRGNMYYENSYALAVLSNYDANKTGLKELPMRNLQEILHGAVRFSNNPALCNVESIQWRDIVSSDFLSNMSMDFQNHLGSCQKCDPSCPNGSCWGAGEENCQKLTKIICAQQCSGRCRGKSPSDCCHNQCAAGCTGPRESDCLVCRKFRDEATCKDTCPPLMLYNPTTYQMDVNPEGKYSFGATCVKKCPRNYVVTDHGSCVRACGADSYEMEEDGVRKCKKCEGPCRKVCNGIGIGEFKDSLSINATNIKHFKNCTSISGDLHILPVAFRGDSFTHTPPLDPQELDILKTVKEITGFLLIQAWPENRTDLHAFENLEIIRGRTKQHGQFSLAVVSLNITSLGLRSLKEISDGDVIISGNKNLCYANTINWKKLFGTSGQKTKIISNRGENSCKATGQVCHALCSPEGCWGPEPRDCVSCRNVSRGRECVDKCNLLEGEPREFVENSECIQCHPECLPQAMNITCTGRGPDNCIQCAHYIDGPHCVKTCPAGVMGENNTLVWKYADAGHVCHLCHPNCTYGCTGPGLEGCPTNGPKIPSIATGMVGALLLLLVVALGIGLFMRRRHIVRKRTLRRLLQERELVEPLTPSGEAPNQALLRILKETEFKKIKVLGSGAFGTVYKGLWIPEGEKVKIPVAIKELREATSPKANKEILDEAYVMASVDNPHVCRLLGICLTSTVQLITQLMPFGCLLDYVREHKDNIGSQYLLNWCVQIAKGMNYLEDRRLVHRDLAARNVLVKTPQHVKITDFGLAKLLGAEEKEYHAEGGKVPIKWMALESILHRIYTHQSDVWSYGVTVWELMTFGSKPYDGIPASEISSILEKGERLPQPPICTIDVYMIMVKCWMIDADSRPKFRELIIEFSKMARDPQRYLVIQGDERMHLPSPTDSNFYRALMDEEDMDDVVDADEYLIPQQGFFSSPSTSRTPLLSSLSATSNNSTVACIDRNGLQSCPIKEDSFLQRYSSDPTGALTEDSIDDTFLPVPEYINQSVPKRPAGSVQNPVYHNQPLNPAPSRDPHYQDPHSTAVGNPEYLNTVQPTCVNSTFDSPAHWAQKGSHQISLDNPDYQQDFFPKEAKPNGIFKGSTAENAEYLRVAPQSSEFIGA

[12] = target: Serine/threonine-protein kinase tousled-like 1 (Homo sapiens) (UniProt Q9UKI8); details: Compound concentration 1000.0 nM
[13] = target: GABA-A receptor; anion channel (Rattus norvegicus) (UniProt O09028+P15431+P18506+P18508+P19969+P20236+P23574+P23576+P28471+P28473+P30191+P62813+P63079+P63138+Q91ZM7+Q9ES14); details: Compound concentration 10.0 uM
[14] = target: Ribosomal protein S6 kinase alpha-1 (Homo sapiens) (UniProt Q15418); details: Compound concentration 1000.0 nM
[15] = target: Serine/threonine-protein kinase 10 (Homo sapiens) (UniProt O94804); details: Compound concentration 1000.0 nM
[16] = target: Leukocyte tyrosine kinase receptor (Homo sapiens) (UniProt P29376); details: Compound concentration 1000.0 nM
[17] = system: Hepatocyte growth factor receptor (Homo sapiens), P08581 [Y1235D]; details: Compound concentration 1000.0 nM
[18] = target: Casein kinase I isoform gamma-1 (Homo sapiens) (UniProt Q9HCP0); details: Compound concentration 1000.0 nM
[19] = target: Focal adhesion kinase 1 (Homo sapiens) (UniProt Q05397); details: Compound concentration 1000.0 nM
[20] = target: Cyclin-dependent kinase 8 (Homo sapiens) (UniProt P49336); details: Compound concentration 1000.0 nM
[21] = target: Beta-2 adrenergic receptor (Homo sapiens) (UniProt P07550); details: Compound concentration 10.0 uM
[22] = target: T1, 5-hydroxytryptamine receptor 2C (Homo sapiens) (UniProt P28335); details: Compound concentration 10.0 uM
T1 sequence (whole entry): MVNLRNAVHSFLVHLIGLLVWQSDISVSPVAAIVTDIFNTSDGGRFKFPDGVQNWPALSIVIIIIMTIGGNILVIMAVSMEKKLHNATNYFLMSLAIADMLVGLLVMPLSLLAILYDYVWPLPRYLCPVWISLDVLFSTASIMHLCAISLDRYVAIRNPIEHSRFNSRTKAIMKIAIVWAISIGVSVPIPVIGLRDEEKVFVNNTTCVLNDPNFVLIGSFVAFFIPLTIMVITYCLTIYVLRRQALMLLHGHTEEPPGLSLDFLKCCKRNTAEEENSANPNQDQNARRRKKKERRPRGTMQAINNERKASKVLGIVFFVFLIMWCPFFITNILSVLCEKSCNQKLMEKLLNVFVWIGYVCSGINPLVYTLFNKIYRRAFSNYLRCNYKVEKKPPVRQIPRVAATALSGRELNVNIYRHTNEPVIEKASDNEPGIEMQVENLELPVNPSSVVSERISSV

[23] = system: Epidermal growth factor receptor (Homo sapiens), P00533 [UNDEFINED MUTATION]; details: Compound concentration 1000.0 nM; remark: listed apart in the source
[24] = target: Phosphatidylinositol 4-phosphate 5-kinase type-1 gamma (Homo sapiens) (UniProt O60331); details: Compound concentration 1000.0 nM
[25] = target: Calcium/calmodulin-dependent protein kinase type II subunit beta (Homo sapiens) (UniProt Q13554); details: Compound concentration 1000.0 nM
[26] = target: Interleukin-1 receptor-associated kinase 1 (Homo sapiens) (UniProt P51617); details: Compound concentration 1000.0 nM
[27] = target: Serine/threonine-protein kinase DCLK3 (Homo sapiens) (UniProt Q9C098); details: Compound concentration 1000.0 nM
[28] = target: Mitogen-activated protein kinase kinase kinase 4 (Homo sapiens) (UniProt Q9Y6R4); details: Compound concentration 1000.0 nM
[29] = target: Mitogen-activated protein kinase kinase kinase 1 (Homo sapiens) (UniProt Q13233); details: Compound concentration 1000.0 nM
[30] = target: Receptor tyrosine-protein kinase erbB-2 (Homo sapiens) (UniProt P04626); details: Compound concentration 1000.0 nM
[31] = system: Receptor-type tyrosine-protein kinase FLT3 (Homo sapiens), P36888 [UNDEFINED MUTATION]; details: Compound concentration 1000.0 nM
[32] = target: Ephrin type-A receptor 2 (Homo sapiens) (UniProt P29317); details: Compound concentration 1000.0 nM
Sequence of Ephrin type-A receptor 2 (Homo sapiens) (P29317 whole entry): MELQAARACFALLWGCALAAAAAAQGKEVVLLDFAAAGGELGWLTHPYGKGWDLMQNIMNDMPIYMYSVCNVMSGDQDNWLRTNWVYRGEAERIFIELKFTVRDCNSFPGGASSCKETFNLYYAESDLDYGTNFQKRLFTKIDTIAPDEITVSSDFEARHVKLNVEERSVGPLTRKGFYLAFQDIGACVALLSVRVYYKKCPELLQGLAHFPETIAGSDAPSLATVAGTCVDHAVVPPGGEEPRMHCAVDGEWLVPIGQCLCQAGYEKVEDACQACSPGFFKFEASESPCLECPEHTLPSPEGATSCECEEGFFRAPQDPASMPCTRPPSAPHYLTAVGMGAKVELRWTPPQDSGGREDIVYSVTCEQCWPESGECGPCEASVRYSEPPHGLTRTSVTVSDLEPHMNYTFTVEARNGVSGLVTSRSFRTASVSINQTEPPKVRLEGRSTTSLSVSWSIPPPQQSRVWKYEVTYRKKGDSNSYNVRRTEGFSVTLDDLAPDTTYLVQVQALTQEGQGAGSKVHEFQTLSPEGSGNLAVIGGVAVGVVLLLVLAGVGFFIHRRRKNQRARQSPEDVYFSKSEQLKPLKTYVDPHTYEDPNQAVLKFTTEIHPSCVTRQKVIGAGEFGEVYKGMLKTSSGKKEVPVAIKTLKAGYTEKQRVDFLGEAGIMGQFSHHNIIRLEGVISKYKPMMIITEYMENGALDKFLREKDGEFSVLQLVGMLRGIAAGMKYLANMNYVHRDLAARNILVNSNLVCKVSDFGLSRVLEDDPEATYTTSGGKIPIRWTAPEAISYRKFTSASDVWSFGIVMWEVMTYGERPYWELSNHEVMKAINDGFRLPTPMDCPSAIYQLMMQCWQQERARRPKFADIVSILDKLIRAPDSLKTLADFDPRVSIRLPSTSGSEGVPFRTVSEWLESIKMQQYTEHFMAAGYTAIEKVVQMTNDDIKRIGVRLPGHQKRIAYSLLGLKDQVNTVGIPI

[33] = target: BDNF/NT-3 growth factors receptor (Homo sapiens) (UniProt Q16620); details: Compound concentration 1000.0 nM
[34] = target: TRAF2 and NCK-interacting protein kinase (Homo sapiens) (UniProt Q9UKE5); details: Compound concentration 1000.0 nM
[35] = target: Serine/threonine-protein kinase PAK 1 (Homo sapiens) (UniProt Q13153); details: Compound concentration 1000.0 nM
[36] = target: Tyrosine-protein kinase JAK2 (Homo sapiens) (UniProt O60674); details: Compound concentration 1000.0 nM
[37] = target: Cyclin-dependent kinase 2 homolog (Plasmodium falciparum (isolate 3D7)) (UniProt P61075); details: Compound concentration 1000.0 nM
Sequence of Cyclin-dependent kinase 2 homolog (Plasmodium falciparum (isolate 3D7)) (P61075 whole entry): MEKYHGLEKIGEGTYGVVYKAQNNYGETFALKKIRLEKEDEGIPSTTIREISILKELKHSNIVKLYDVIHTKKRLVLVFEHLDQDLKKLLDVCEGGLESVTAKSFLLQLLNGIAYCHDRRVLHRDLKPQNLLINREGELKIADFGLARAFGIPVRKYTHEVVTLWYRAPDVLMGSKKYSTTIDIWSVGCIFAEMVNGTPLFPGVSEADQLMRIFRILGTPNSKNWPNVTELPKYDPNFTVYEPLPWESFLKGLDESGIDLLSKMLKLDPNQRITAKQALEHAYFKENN

Sequence of Bone morphogenetic protein receptor type-2 (Homo sapiens) (Q13873 whole entry): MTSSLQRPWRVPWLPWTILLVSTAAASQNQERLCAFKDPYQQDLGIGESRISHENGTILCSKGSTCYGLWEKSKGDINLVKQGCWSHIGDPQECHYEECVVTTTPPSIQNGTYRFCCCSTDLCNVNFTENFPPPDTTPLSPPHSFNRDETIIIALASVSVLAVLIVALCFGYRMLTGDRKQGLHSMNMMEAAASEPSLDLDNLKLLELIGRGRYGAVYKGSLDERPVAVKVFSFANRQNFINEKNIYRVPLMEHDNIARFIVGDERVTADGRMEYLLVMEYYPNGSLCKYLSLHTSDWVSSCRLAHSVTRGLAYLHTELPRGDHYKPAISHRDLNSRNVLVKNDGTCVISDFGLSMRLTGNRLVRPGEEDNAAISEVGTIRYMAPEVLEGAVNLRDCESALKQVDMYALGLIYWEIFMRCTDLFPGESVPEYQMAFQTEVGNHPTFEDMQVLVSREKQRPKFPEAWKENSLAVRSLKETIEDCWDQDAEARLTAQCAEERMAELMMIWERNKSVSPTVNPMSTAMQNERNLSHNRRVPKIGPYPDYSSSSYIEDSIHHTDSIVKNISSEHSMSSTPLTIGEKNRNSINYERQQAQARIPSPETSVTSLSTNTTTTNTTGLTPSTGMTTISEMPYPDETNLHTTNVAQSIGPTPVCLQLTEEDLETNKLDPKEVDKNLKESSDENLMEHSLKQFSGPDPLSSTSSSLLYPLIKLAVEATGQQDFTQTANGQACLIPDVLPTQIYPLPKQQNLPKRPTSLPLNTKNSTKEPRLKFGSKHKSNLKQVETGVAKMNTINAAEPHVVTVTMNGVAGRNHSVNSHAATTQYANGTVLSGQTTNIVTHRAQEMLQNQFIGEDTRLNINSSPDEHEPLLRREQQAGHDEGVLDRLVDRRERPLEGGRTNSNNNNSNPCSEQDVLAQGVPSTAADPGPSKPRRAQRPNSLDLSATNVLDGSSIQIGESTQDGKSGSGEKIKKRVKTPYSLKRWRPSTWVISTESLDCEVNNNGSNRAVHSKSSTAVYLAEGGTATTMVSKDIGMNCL
Sequence of Casein kinase I isoform epsilon (Homo sapiens) (P49674 whole entry, looked up, canonical isoform): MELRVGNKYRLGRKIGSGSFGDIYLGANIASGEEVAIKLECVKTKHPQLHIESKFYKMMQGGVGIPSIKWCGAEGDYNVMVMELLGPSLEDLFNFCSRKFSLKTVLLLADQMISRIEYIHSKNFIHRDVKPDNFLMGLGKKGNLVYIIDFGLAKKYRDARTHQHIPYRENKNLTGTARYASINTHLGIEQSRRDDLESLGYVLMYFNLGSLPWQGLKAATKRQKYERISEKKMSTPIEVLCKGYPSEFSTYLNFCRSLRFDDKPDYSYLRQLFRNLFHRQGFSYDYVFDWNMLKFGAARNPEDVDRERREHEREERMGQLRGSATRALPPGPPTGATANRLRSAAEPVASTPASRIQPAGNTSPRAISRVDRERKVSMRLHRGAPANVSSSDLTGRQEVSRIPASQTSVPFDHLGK

N#CC1(c2ccccn2)CCN(Cc2cc(C(=O)N3CCCC3)c(=O)n3ccccc23)CC1
inactive: residual activity [1] 100% | residual activity [2] 100% | residual activity [3] 92% | residual activity [4] 83% | residual activity [5] 100% | residual activity [6] 100% | residual activity [7] 100% | residual activity [8] 100% | residual activity [9] 100% | residual activity [10] 56% | residual activity [11] 92% | residual activity [12] 85% | inhibition [13] 21.8% | residual activity [14] 100% | residual activity [15] 95% | residual activity [16] 90% | residual activity [17] 97% | residual activity [18] 79% | residual activity [19] 89% | residual activity [20] 100% | inhibition [21] 15.8% | inhibition [22] -2.49% | residual activity [23] 94% | residual activity [24] 68% | residual activity [25] 89% | residual activity [26] 100% | residual activity [27] 100% | residual activity [28] 90% | residual activity [29] 98% | residual activity [30] 95% | residual activity [31] 90% | residual activity [32] 86% | residual activity [33] 93% | residual activity [34] 100% | residual activity [35] 100% | residual activity [36] 85% | residual activity [37] 100%

N#CC1(c2ccccn2)CCN(Cc2cc(C(=O)O)c(=O)n3ccccc23)CC1 [MSD-M1PAM]
inactive: residual activity [1] 86% | residual activity [2] 100% | residual activity [3] 89% | residual activity [4] 92% | residual activity [5] 100% | residual activity [6] 79% | residual activity [7] 100% | residual activity [8] 65% | residual activity [9] 100% | residual activity [10] 100% | residual activity [11] 100% | residual activity [12] 97% | inhibition [13] 8.92% | residual activity [14] 94% | residual activity [15] 100% | residual activity [16] 100% | residual activity [17] 99% | residual activity [18] 100% | residual activity [19] 100% | residual activity [20] 100% | inhibition [21] 13.9% | inhibition [22] 10.5% | residual activity [23] 80% | residual activity [24] 89% | residual activity [25] 100% | residual activity [26] 77% | residual activity [27] 89% | residual activity [28] 100% | residual activity [29] 98% | residual activity [30] 96% | residual activity [31] 100% | residual activity [32] 83% | residual activity [33] 84% | residual activity [34] 100% | residual activity [35] 86% | residual activity [36] 96% | residual activity [37] 68%
